This is an account of results in patent US9895362B2, “Pharmaceutical composition combining an anticonvulsant and a derivate of nicotinic acid” (Farmacéuticos Rayere, S.A., priority 2014, dated 2018).

The test system of data set [1] is mechanical allodynia (diabetic neuropathy induced with streptozotocin). As to the kind of experiment: Model of pain due to diabetic neuropathy induced with streptozotocin; mechanical allodynia by Von Frey filaments assay; isobolographic analysis. It is filed as in vivo, male BALB/c mice. The conditions noted are these: for DE30 (effective dose that provides an analgesic effect of 30%): drugs administered individually, antiallodynic effect from AUC at 4 hours post-treatment; for dose-antiallodynic effect curve: gabapentin 50, 100, 150 mg/kg, lysine clonixinate 75, 150, 300 mg/kg, individually. How it is done:
In this example, a model of neuropathic pain induced by streptozotocin in male BALB/c mice 6-8 weeks of age is used. The procedure used was based on one described and widely validated (Ahlgren, S. C. and Levine, J. D., 1993), which consists in an intraperitoneal injection of streptozotocin (45 mg/kg) in 0.2 mL of saline solution. […] The blood glucose levels were evaluated in 4 groups of mice with the following characteristics: 1) without treatment (basal), 2) with treatment in fasting, 3) after 1 day of treatment and 4) after 4 days of treatment. As a diabetes parameter, a plasma glucose level≧200 mg/dL was taken.
Allodynia was determined by mechanical stimulation through progressively […] application of different forces with Von Frey filaments of different caliber. The mice were placed in plastic cylinders on a wire mesh table for 15 minutes, ensuring that they were calm, and subsequently the filaments were progressively applied to the side of the leg. The filament of 0.02 g of force was the first to be applied to the left leg, five times during a total period of 30 seconds (approximately 2 seconds per stimulus), the reaction of the mouse being determined after each application. The response observed is the withdrawal or licking of the leg. If three of the five stimuli are observed, the reaction is considered positive and the mechanical threshold of the response is established.
Different groups were used to characterize the dose-response curve of the analgesics, administering the drugs after inducing of diabetes. The doses for gabapentin were 50, 100 and 150 mg/kg, and for lysine clonixinate they were 75, 150 and 300 mg/kg. Groups of animals were used with n≧8. A 0.9% saline solution was administered by intraperitoneal route as a control of each experimental group.
For determination of antiallodynic efficacy, the mean threshold in each group was plotted as a function of time after the administration of the drugs individually or in combination, and the area below the curve (ABC) was obtained using the trapezoid rule. The percentage increase of the threshold was calculated using the following equation: […]
To evaluate the net antiallodynic effect, the area under the curve of the time courses evaluated at 4 hours post-treatment was obtained.
To evaluate the effect of the CLG combination in relation to the effect of each drug individually, isobolographic analysis was used. […] From the respective DE30 of the individual drugs, combinations of gabapentin and CL in fixed proportions were made and evaluated.
Subsequently, a dose-response curve was plotted after coadministration of the two drugs. […] The data represent the mean and the standard error of 8 mice.
Once the DE30 values, both the theoretical and experimental, were obtained, a statistical comparison of the additive theoretical point and the experimental DE30 value was done using a Student's t-test. The type of interaction between the two drugs was established by constructing an isobologram as follows. For each of the individual agents, the dose that produces 30% of antiallodynic effect (DE30) was plotted in rectangular coordinates (x, y). The line that connects these two points is termed “isobolic” or the “additivity line,” and on this line are all the possible combinations of the two drugs that produce only an additivity or summation effect.
To describe the magnitude of the interaction, the interaction index value (γ), which is a quantitative measure of the interaction between two drugs, was calculated: […]

The subject of data set [2] is mechanical allodynia (injury of the sciatic nerve). As to the kind of experiment: Experimental model of neuropathic pain due to injury (ligation and cutting) of the sciatic nerve; mechanical allodynia by Von Frey filaments assay; isobolographic analysis. The class given is in vivo, mice. The conditions noted are these: for DE30: drugs administered individually, intraperitoneal, linear regression, AUC at 4 hours; for dose dependence of antiallodynic effect: intraperitoneal administration. From the text:
To evaluate the analgesic efficacy of the CLG combination in neuropathic pain due to injury to the nerve, an experimental model of neuropathic pain due to ligation and cutting of sciatic nerve in mice was used. The procedure used was based on that described by I. Decosterd and C. J. Woolf (2000), which consists of isolating, tying and injuring the sciatic nerve of the mouse, followed by evaluation of the mechanical allodynia resulting from damage to the nerve.
The surgery consisted of making an incision of approximately 1 cm in the direction proximal longitudinal to the knee and afterwards opening the skin by blunt dissection and separating the muscular layer by dissection lateral to the blood vessel near the femur. Then the right sciatic nerve was exposed under the muscles, separating them with care to display the sciatic nerve in the region where it branches from the sural nerve. Only the sciatic nerve was sutured with No. 6 thread, trying not to damage the sural nerve in any way. A tight surgical knot was made on the sciatic nerve by cutting below the suture with a pair of tweezers, then stitching the muscle layer and the skin by surgical knots. […] Consequently, the antiallodynic effect of the drugs is evaluated from the second or third day after the surgery. For validation of the model, as a surgery control group, a sham surgery was used, in which the sciatic nerve is only exposed surgically, without ligation or cutting, and then the muscle tissue and skin is stitched.
In all groups, the evaluation of mechanical allodynia with the application of Von Frey filaments was done in the same manner as described above for the model of pain due to diabetic neuropathy. The response thresholds in both legs, ipsilateral (right) and contralateral (left), were evaluated.
For systemic administration of the drugs individually and in combinations in the mechanical allodynia model, different groups were used to characterize the dose-response curve by administering the drugs on the third day after the surgery. The doses for gabapentin were 50, 100 and 150 mg/kg, and for lysine clonixinate they were 75, 150 and 300 mg/kg. Afterwards, as described below, other groups were administered different doses of the CLG combination. Both gabapentin and lysine clonixinate and their combinations were dissolved in a 0.9% saline solution. Groups of animals were used with an experimental n of 6 to 8. A 0.9% saline solution was administered by intraperitoneal route to an experimental control group.
To evaluate the net antiallodynic effect, the area under the curve of the time courses evaluated at 4 hours post treatment, both of the ipsilateral and the contralateral leg, was obtained using the trapezoid rule. […] FIG. 10 represents the dose-antiallodynic effect curves, corresponding to gabapentin and lysine clonixinate administered individually. By means of linear regression, the DE30 values of the drugs administered individually were obtained.
In the same way as was done in the previous model, isobolographic analysis was used to evaluate the effect of the CLG combination in relation to the effect of each drug individually. From the respective DE30 of the individual drugs, combinations of gabapentin and CL in fixed proportions were evaluated.

Data set [3] relates to neurological profile (behavior, reflexes, convulsions, motor coordination). As to the kind of experiment: Neurological profile after subchronic administration (14 days). It is filed as in vivo, mice. The settings on record: for value of all the parameters of the neurological profile: 14 days of treatment, at these doses; for Behavior: Exploratory Activity / Behavior: Flabbiness / Behavior: Irritability / Behavior: State of Alert / Behavior: Straightening of Tail / Behavior: Vocalization / Convulsions: Clonic / Convulsions: Gait Movements / Convulsions: Jumping Movement / Convulsions: Tonic / Motor Coordination: Abnormal Gait / Motor Coordination: Paralysis / Motor Coordination: Running in Circles / Motor Coordination: Staggering Gait / Reflexes: Corneal: i.p. daily 14 days, gabapentin 31 mg/kg, lysine clonixinate 150 mg/kg, or both. How it is done:
The motor activity and biochemical profile evaluation data were evaluated by an analysis of variance (ANOVA), followed by a Dunnett test. The neurological profile data were evaluated by grading, with 0=null, […] and 3=significant. […] This administration was done consecutively every 24 hours. After 14 days of exposure, toxicological tests were done. A daily evaluation was simultaneously done of the neurological profile, since one critical aspect in all experimental models of nervous system pathologies is evaluation of the final neurological prognosis. In the case of subchronic administration of medication, evaluation of the final functional deficit is a valuable tool. Therefore, after receiving a daily dose for 14 days, the mice underwent an evaluation of the neurological profile of the experimental animals. This evaluation included parameters such as behavior, reflexes, convulsions and motor coordination. Each parameter was graded on a scale of 0=null, 1=slight, 2=moderate and 3=considerable.

A further data set has as its system neuropathic pain. As to the kind of experiment: Overall conclusions from both mouse models of neuropathic pain. The settings on record: lysine clonixinate alone, in the studies performed. It is filed as in vivo, mice. From the text: In the present study, we used two mouse models to study neuropathic pain: the model of diabetic neuropathy induced by streptozotocin and the model of neuropathic pain induced by a physical injury to the sciatic nerve.

For data set [4] the following is noted: patients treated with gabapentin; cited from earlier work.

Regarding `Cc1c(Cl)cccc1Nc1ncccc1C(=O)O.NCCCC[C@H](N)C(=O)O` [lysine clonixinate, lysine salt of 2-[(3-chloro-2-methylphenyl)amino]-3-pryridinecarboxylic acid], the “antiallodynic effect (in words)” value in data set [1] (administered individually, diabetic neuropathy model) is recorded as “moderate antiallodynic effect”. Further, the “DE30 (effective dose that provides an analgesic effect of 30%)” value in data set [1] (diabetic neuropathy model) amounted to 150.41 ± 25.49 mg/kg. Also, the “DE30 (effective dose that provides an analgesic effect of 30%)” value in data set [1] (diabetic neuropathy model, listed as Lysine Clonixinate) was 150.41 mg/kg. Further, in data set [1], the dose-antiallodynic effect curve entry was “dose-dependent increase”. For the same compound, in data set [2] (administered individually), the “antiallodynic effect (in words)” value is recorded as “moderate antiallodynic effect”. Also, in data set [2], the DE30 was found to be 579.67 mg/kg and the “dose dependence of antiallodynic effect” value is reported as “dose dependent increase”. In data set [3], the “value of all the parameters of the neurological profile” value worked out at 0, the “Behavior: Exploratory Activity” value is 0, the “Behavior: Flabbiness” value stood at 0 and the “Behavior: Irritability” value was 0. In addition, in data set [3], the “Behavior: State of Alert” value amounted to 0, the “Behavior: Straightening of Tail” value stood at 0, the “Behavior: Vocalization” value amounted to 0 and the “Convulsions: Clonic” value turned out to be 0. Besides, in data set [3], the “Convulsions: Gait Movements” value came out at 0, the “Convulsions: Jumping Movement” value was 0, the “Convulsions: Tonic” value came to 0 and the “Motor Coordination: Abnormal Gait” value is recorded as 0. In data set [3], the “Motor Coordination: Paralysis” value turned out to be 0, the “Motor Coordination: Running in Circles” value amounted to 0, the “Motor Coordination: Staggering Gait” value was determined as 0 and the “Reflexes: Corneal” value is on record as 0. Also, the “effect on neuropathic pain (maximum found)” value with neuropathic pain was “up to 30%”.
`NCC1(CC(=O)O)CCCCC1` [gabapentin, 2-[1-(aminomethyl)cyclohexyl] acetic acid]: the “DE30 (effective dose that provides an analgesic effect of 30%)” value in data set [1] (diabetic neuropathy model) amounted to 39.62 ± 1.35 mg/kg. Besides, the “DE30 (effective dose that provides an analgesic effect of 30%)” value in data set [1] (diabetic neuropathy model, listed as Gabapentin) stood at 39.62 mg/kg. In addition, the dose-antiallodynic effect curve result in data set [1] is listed as “dose-dependent increase”. For the same compound, in data set [2], the DE30 stood at 83.82 mg/kg and the “dose dependence of antiallodynic effect” value is reported as “dose dependent increase”. For the same compound, in data set [3], the “value of all the parameters of the neurological profile” value was determined as 0, the “Behavior: Exploratory Activity” value turned out to be 0, the “Behavior: Flabbiness” value is 0 and the “Behavior: Irritability” value came to 0. Besides, in data set [3], the “Behavior: State of Alert” value came out at 0, the “Behavior: Straightening of Tail” value is listed as 0, the “Behavior: Vocalization” value was found to be 0 and the “Convulsions: Clonic” value was determined as 0. Also, in data set [3], the “Convulsions: Gait Movements” value was 0, the “Convulsions: Jumping Movement” value amounted to 0, the “Convulsions: Tonic” value was found to be 0 and the “Motor Coordination: Abnormal Gait” value worked out at 0. Also, in data set [3], the “Motor Coordination: Paralysis” value is on record as 0, the “Motor Coordination: Running in Circles” value is on record as 0, the “Motor Coordination: Staggering Gait” value is reported as 0 and the “Reflexes: Corneal” value was 0. Moreover, the “patients showing drowsiness, dizziness, ataxia, headache and fatigue” value in data set [4] is “more than 10%”.
